Paper PMC8286840, “Identifying SARS-CoV-2 antiviral compounds by screening for small molecule inhibitors of Nsp3 papain-like protease” (Biochemical Journal, 2021)
Counter-ions that a name gives are not always drawn. Like-named read-outs stand apart in the source and are kept apart here.

Legend:
[1] = molecular target: T1, SARS-CoV-2 PLpro (nsp3 1564–1878) (Severe acute respiratory syndrome coronavirus 2, UniProt P0DTD1); assay: biochemical; set-up: FRET-quenched peptide (Pro3) cleavage by PLpro, 10 min pre-incubation, slope over 20 min, normalised to no-compound control; conditions: low concentration screen, read-out: % of control remaining
[2] = molecular target: T1, SARS-CoV-2 PLpro (nsp3 1564–1878); assay: biochemical; set-up: FRET-quenched peptide (Pro3) cleavage by PLpro, 10 min pre-incubation, slope over 20 min, normalised to no-compound control; conditions: high concentration screen, read-out: % of control remaining

`Cc1cc(-n2c(=O)[nH]c(=O)n(C)c2=O)ccc1Oc1ccc(SC(F)(F)F)cc1` [Toltrazuril] showed a remaining activity at 1.25 µM ([1]; Well no.=4692) of 110% and a remaining activity at 3.75 µM ([2]; Well no.=4692) of 102%.

`Cc1ccccc1C(=O)Nc1ccc(C(=O)N2CCCC(O)c3cc(Cl)ccc32)c(C)c1` (stereo not drawn) [Tolvaptan] gave a remaining activity at 1.25 µM ([1]; Well no.=7517) of 102%, a remaining activity at 1.25 µM ([1]; Well no.=8388) of 97.7% and a remaining activity at 3.75 µM ([2]; Well no.=7517) of 95.6%. For the same compound, the remaining activity at 3.75 µM ([2]; Well no.=8388) was 97.5%.

With `C[C@H]1CC[C@]2(NC1)O[C@H]1C[C@H]3[C@@H]4CC[C@H]5C[C@@H](O)CC[C@]5(C)[C@H]4CC[C@]3(C)[C@H]1[C@@H]2C` [Tomatidine] the remaining activity at 1.25 µM ([1]; Well no.=3186) was 94.5% and the remaining activity at 3.75 µM ([2]; Well no.=3186) was 99.4%.

`CNCC[C@@H](Oc1ccccc1C)c1ccccc1` [Tomoxetine] gave a remaining activity at 1.25 µM ([1]; Well no.=1182) of 99.4% and a remaining activity at 3.75 µM ([2]; Well no.=1182) of 95.7%.

For `CC(=O)c1ccc2c(c1)[C@H](NC(=O)c1ccc(F)c(Cl)c1)[C@H](O)C(C)(C)O2` [Tonabersat], the remaining activity at 1.25 µM ([1]; Well no.=5960) was 92.7% and the remaining activity at 3.75 µM ([2]; Well no.=5960) was 94.8%.

Compound `CC1(C)O[C@@H]2[C@@H](CO[C@@]3(COS(N)(=O)=O)OC(C)(C)O[C@@H]23)O1` [Topiramate] has a remaining activity at 1.25 µM ([1]; Well no.=4853) of 101%, a remaining activity at 1.25 µM ([1]; Well no.=7527) of 102% and a remaining activity at 3.75 µM ([2]; Well no.=4853) of 104%. For the same compound, the remaining activity at 3.75 µM ([2]; Well no.=7527) was 100%.

`N#Cc1cc(-c2n[nH]c(-c3ccncc3)n2)ccn1` [Topiroxostat] was tested, and the remaining activity at 1.25 µM ([1]; Well no.=8440) was 96.2% and the remaining activity at 3.75 µM ([2]; Well no.=8440) was 97.1%.

In the case of `CC[C@@]1(O)C(=O)OCc2c1cc1n(c2=O)Cc2cc3c(CN(C)C)c(O)ccc3nc2-1` [Topotecan hydrochloride hydrate], the remaining activity at 1.25 µM ([1]; Well no.=6019) is reported as 103% and the remaining activity at 3.75 µM ([2]; Well no.=6019) is reported as 99%.

`CC[C@@]1(O)C(=O)OCc2c1cc1n(c2=O)Cc2cc3c(CN(C)C)c(O)ccc3nc2-1` [Topotecan.HCl] gave a remaining activity at 1.25 µM ([1]; Well no.=1964) of 98.5% and a remaining activity at 3.75 µM ([2]; Well no.=1964) of 97.5%.

`CCOC(=O)N1c2ccc(C(F)(F)F)cc2[C@@H](N(Cc2cc(C(F)(F)F)cc(C(F)(F)F)c2)C(=O)OC)C[C@H]1CC` [Torcetrapib (CP-529414)] showed a remaining activity at 1.25 µM ([1]; Well no.=4749) of 95.8% and a remaining activity at 3.75 µM ([2]; Well no.=4749) of 98.1%.

For `CN(C)CCOc1ccc(/C(=C(/CCCl)c2ccccc2)c2ccccc2)cc1` [Toremifene], the remaining activity at 1.25 µM ([1]; Well no.=1966) was 104% and the remaining activity at 3.75 µM ([2]; Well no.=1966) was 102%.

For `CCC(=O)N1CCN(c2ccc(-n3c(=O)ccc4cnc5ccc(-c6cnc7ccccc7c6)cc5c43)cc2C(F)(F)F)CC1` [Torin 1], the remaining activity at 1.25 µM ([1]; Well no.=4795) was 106% and the remaining activity at 3.75 µM ([2]; Well no.=4795) was 102%.

`Nc1ccc(-c2ccc3ncc4ccc(=O)n(-c5cccc(C(F)(F)F)c5)c4c3c2)cn1` [Torin 2] showed a remaining activity at 1.25 µM ([1]; Well no.=4787) of 95.6% and a remaining activity at 3.75 µM ([2]; Well no.=4787) of 97.9%.

With `CC(C)C[C@@H](C(=O)N[C@H](C(=O)OC1CCCC1)c1ccccc1)[C@H](O)C(=O)NO` [Tosedostat (CHR2797)] the remaining activity at 1.25 µM ([1]; Well no.=4880) was 93.4% and the remaining activity at 3.75 µM ([2]; Well no.=4880) was 88.9%.

With `NC1CCN(c2nc3c(cc2F)c(=O)c(C(=O)O)cn3-c2ccc(F)cc2F)C1` (stereo not drawn) [Tosufloxacin] the remaining activity at 1.25 µM ([1]; Well no.=1962) was 98.1% and the remaining activity at 3.75 µM ([2]; Well no.=1962) was 93.3%.

Work on `COc1ccc(N2CCOCC2)c2sc(NC(=O)N3CCC(C)(O)CC3)nc12` [Tozadenant] yielded a remaining activity at 1.25 µM ([1]; Well no.=7049) of 103%, a remaining activity at 1.25 µM ([1]; Well no.=8115) of 99% and a remaining activity at 3.75 µM ([2]; Well no.=7049) of 100%. It also gave a remaining activity at 3.75 µM ([2]; Well no.=8115) of 102%.

With `Cc1cc(Nc2cc(N3CCN(C)CC3)nc(Sc3ccc(NC(=O)C4CC4)cc3)n2)n[nH]1` [Tozasertib] the remaining activity at 1.25 µM ([1]; Well no.=2895) was 101% and the remaining activity at 3.75 µM ([2]; Well no.=2895) was 103%.

With `N#Cc1cnc2cnc(NCc3cccnc3)cc2c1Nc1ccc(F)c(Cl)c1` [Tpl2 Kinase Inhibitor] the remaining activity at 1.25 µM ([1]; Well no.=2662) was 92.4% and the remaining activity at 3.75 µM ([2]; Well no.=2662) was 89.7%.

`CCCCNc1c(C(=O)OCC)c(C)nc2c1cnn2CC` [Tracazolate] was tested, and the remaining activity at 1.25 µM ([1]; Well no.=1472) was 93.2% and the remaining activity at 3.75 µM ([2]; Well no.=1472) was 93.7%.

`COc1cccc([C@@]2(O)CCCC[C@@H]2CN(C)C)c1` [Tramadol] was tested, and the remaining activity at 1.25 µM ([1]; Well no.=2002) was 104% and the remaining activity at 3.75 µM ([2]; Well no.=2002) was 104%.

`NC[C@H]1CC[C@H](C(=O)O)CC1` [Tranexamic acid] was tested, and the remaining activity at 1.25 µM ([1]; Well no.=1816) was 97.3% and the remaining activity at 3.75 µM ([2]; Well no.=1816) was 99.8%.
